Patent publication US20250059199A1, “SOLID FORMS OF A TYK2 INHIBITOR, METHOD OF PREPARATION, AND USE THEREOF” (BeiGene Switzerland GmbH, priority 2021, published 2025)
Counter-ions that a name gives are not always drawn.

Legend:
[1] = Physicochemical stability of Compound 1 Form A (equilibration, evaporation, anti-solvent, DSC heating-cooling cycle experiments); conditions: equilibration at 25° C. (18 solvent systems) and 50° C. (19), slow and fast evaporation
[2] = Feasibility of Formulation process (compression, dry grinding, granulation simulation); format: physicochemical; conditions: for tolerance to compression, dry grinding, granulation simulation: compression at 2, 5, 10 and 20 MPa, Form change and crystallinity
Procedure: Feasibility of Formulation process for Compound 1 mesylate Form C, phosphate Form A, maleate Form A, fumarate Form B hydrochloride Form C, and hydrochloride Form D were evaluated by compression (at 2 MPa, 5 MPa, 10 MPa, and 20 MPa), dry grinding, and granulation simulation experiments.

[3] = PK exposure; format: in vivo; conditions: summary statement, method not given
[4] = Bulk stability; format: physicochemical; conditions: 1 week
Procedure: Bulk stability of Compound 1 mesylate Form C, phosphate Form A, maleate Form A, fumarate Form B was investigated under 25° C./60% RH in an open container and under 40° C./75% RH in an open container over 1 week. Bulk stability of Compound 1 hydrochloride Form C and Form D, were evaluated under 25° C./60% RH in an open container, under 40° C./75% RH in an open container, and at 60° C. in a tight container over 1 week.

[5] = Hygroscopicity by dynamic vapor sorption (DVS) test; format: physicochemical; conditions: for Form and crystallinity after the DVS test: after DVS at 25° C.; for hygroscopicity: DVS at 25° C.; for water absorbed: from 40% RH to 95% RH at 25° C.
Procedure: It absorbed about 1.1% water from 40% RH to 95% RH at 25° C. […] It absorbed about 2.3% water from 40% RH to 95% RH at 25° C. […] It absorbed about 0.4% water from 40% RH to 95% RH at 25° C. […] It absorbed about 0.29% water from 40% RH to 95% RH at 25° C. […] It absorbed about 0.14% water from 40% RH to 95% RH at 25° C. After the DVS test.

[6] = Solubility in aqueous pH buffers and bio-relevant solutions; format: physicochemical; conditions: for solubility: in some solvent systems (summary statement)
Procedure: Solubility of the Compound 1 mesylate Form C, phosphate Form A, maleate Form A, and fumarate Form B was measured in 6 aqueous pH buffers and bio-relevant solutions including pH 1.2 HCl solution (0.1 N), pH 4.5 acetate buffer (50 mM), water, pH 2.0 SGF, pH 6.5 FaSSIF-v1, and pH 5.0 FeSSIF-v1 at 37° C. for 1 h and 2 h. Residual solids after the solubility test were analyzed by XRPD.

Compound	physicochemical stability (crystalline Form after the experiments) [1]	Form after dry grinding and compression ([2]; dry grinding and compression)	PK exposure [3]	bulk stability ([4]; 25° C./60% RH, open container)	bulk stability ([4]; 40° C./75% RH, open container)	Form and crystallinity after the DVS test [5]	DVS behaviour ([5]; from 0% RH to 40% RH, 25° C.)	residual solids after the solubility test (XRPD) ([6]; SGF)	solubility [6]	XRPD peaks after compression ([2]; compression at 5 MPa, 10 MPa, and 20 MPa)	bulk stability ([4]; 60° C., tight container)	hygroscopicity [5]	water absorbed [5]	XRPD peaks after compression ([2]; compression under 5 MPa and 10 MPa)	solubility at 1 h ([6]; pH 2, simulated gastric fluid, thermodynamic from solid, SGF, 37° C., at 1 h)	DVS behaviour of the potential hydrate ([5]; RH<70%, 25° C.)	DVS behaviour ([5]; relative humidity above 40%, 25° C.)	tolerance to compression ([2]; compression)	tolerance to compression, dry grinding, granulation simulation [2]
CC(=O)Nc1cc(Nc2cc(C3CCOCC3)cc(S(C)(=O)=O)n2)c(-c2ccc3c(n2)OCC(C)(C)O3)cn1 [Compound 1 Form A, N-(5-(2,2-dimethyl-2,3-dihydro-[1,4]dioxino[2,3-b]pyridin-6-yl)-4-((6-(methylsulfonyl)-4-(tetrahydro-2H-pyran-4-yl)pyridin-2-yl)amino)pyridin-2-yl)acetamide]	still kept the same Form	–	–	–	–	–	–	–	–	–	–	–	–	–	–	–	–	–	–
CC(=O)Nc1cc(Nc2cc(C3CCOCC3)cc(S(C)(=O)=O)n2)c(-c2ccc3c(n2)OCC(C)(C)O3)cn1 [Compound 1 fumarate Form B, N-(5-(2,2-dimethyl-2,3-dihydro-[1,4]dioxino[2,3-b]pyridin-6-yl)-4-((6-(methylsulfonyl)-4-(tetrahydro-2H-pyran-4-yl)pyridin-2-yl)amino)pyridin-2-yl)acetamide]	–	showed Form change	good PK exposure	physically and chemically stable	physically and chemically stable	still Compound 1 fumarate Form B	stable	remained unchanged	relatively high solubility	–	–	–	–	–	–	underwent dehydration when RH<70% and returns back to the anhydrate	started to absorb water when relative humidity was above 40% and converted to a potential hydrate	–	–
CC(=O)Nc1cc(Nc2cc(C3CCOCC3)cc(S(C)(=O)=O)n2)c(-c2ccc3c(n2)OCC(C)(C)O3)cn1 [Compound 1 hydrochloride Form C, N-(5-(2,2-dimethyl-2,3-dihydro-[1,4]dioxino[2,3-b]pyridin-6-yl)-4-((6-(methylsulfonyl)-4-(tetrahydro-2H-pyran-4-yl)pyridin-2-yl)amino)pyridin-2-yl)acetamide]	–	–	–	physically and chemically stable	physically and chemically stable	No Form changed	–	–	–	became slightly broad	physically and chemically stable	slightly hygroscopic	about 0.29%	–	–	–	–	good tolerance to compression with no Form change and no obvious crystallinity decrease	good tolerance

Second part, led by results:

physicochemical stability (crystalline Form after the experiments) [1]	Form after dry grinding and compression ([2]; dry grinding and compression)	PK exposure [3]	bulk stability ([4]; 25° C./60% RH, open container)	bulk stability ([4]; 40° C./75% RH, open container)	Form and crystallinity after the DVS test [5]	DVS behaviour ([5]; from 0% RH to 40% RH, 25° C.)	residual solids after the solubility test (XRPD) ([6]; SGF)	solubility [6]	XRPD peaks after compression ([2]; compression at 5 MPa, 10 MPa, and 20 MPa)	bulk stability ([4]; 60° C., tight container)	hygroscopicity [5]	water absorbed [5]	XRPD peaks after compression ([2]; compression under 5 MPa and 10 MPa)	solubility at 1 h ([6]; pH 2, simulated gastric fluid, thermodynamic from solid, SGF, 37° C., at 1 h)	Compound	DVS behaviour of the potential hydrate ([5]; RH<70%, 25° C.)	DVS behaviour ([5]; relative humidity above 40%, 25° C.)	tolerance to compression ([2]; compression)	tolerance to compression, dry grinding, granulation simulation [2]
–	–	–	physically and chemically stable	physically and chemically stable	No Form changed	–	–	–	–	physically and chemically stable	non-hygroscopic	about 0.14%	became slightly broad	–	CC(=O)Nc1cc(Nc2cc(C3CCOCC3)cc(S(C)(=O)=O)n2)c(-c2ccc3c(n2)OCC(C)(C)O3)cn1 [Compound 1 hydrochloride Form D, N-(5-(2,2-dimethyl-2,3-dihydro-[1,4]dioxino[2,3-b]pyridin-6-yl)-4-((6-(methylsulfonyl)-4-(tetrahydro-2H-pyran-4-yl)pyridin-2-yl)amino)pyridin-2-yl)acetamide]	–	–	–	good tolerance
–	–	good PK exposure	physically and chemically stable	physically and chemically stable	No Form and crystallinity changed	–	–	relatively high solubility	–	–	slightly hygroscopic	about 0.4%	–	–	CC(=O)Nc1cc(Nc2cc(C3CCOCC3)cc(S(C)(=O)=O)n2)c(-c2ccc3c(n2)OCC(C)(C)O3)cn1 [Compound 1 maleate Form A, N-(5-(2,2-dimethyl-2,3-dihydro-[1,4]dioxino[2,3-b]pyridin-6-yl)-4-((6-(methylsulfonyl)-4-(tetrahydro-2H-pyran-4-yl)pyridin-2-yl)amino)pyridin-2-yl)acetamide]	–	–	–	good tolerance
–	–	good PK exposure	physically and chemically stable	physically and chemically stable	No Form and crystallinity changed	–	–	relatively high solubility	–	–	slightly hygroscopic	about 1.1%	–	–	CC(=O)Nc1cc(Nc2cc(C3CCOCC3)cc(S(C)(=O)=O)n2)c(-c2ccc3c(n2)OCC(C)(C)O3)cn1 [Compound 1 mesylate Form C, N-(5-(2,2-dimethyl-2,3-dihydro-[1,4]dioxino[2,3-b]pyridin-6-yl)-4-((6-(methylsulfonyl)-4-(tetrahydro-2H-pyran-4-yl)pyridin-2-yl)amino)pyridin-2-yl)acetamide]	–	–	–	good tolerance
–	–	good PK exposure	physically and chemically stable	physically and chemically stable	No Form and crystallinity change	–	–	relatively high solubility	–	–	slightly hygroscopic	about 2.3%	–	~740 µg/mL	CC(=O)Nc1cc(Nc2cc(C3CCOCC3)cc(S(C)(=O)=O)n2)c(-c2ccc3c(n2)OCC(C)(C)O3)cn1 [Compound 1 phosphate Form A, N-(5-(2,2-dimethyl-2,3-dihydro-[1,4]dioxino[2,3-b]pyridin-6-yl)-4-((6-(methylsulfonyl)-4-(tetrahydro-2H-pyran-4-yl)pyridin-2-yl)amino)pyridin-2-yl)acetamide]	–	–	–	good tolerance
